From patent publication US20240042050A1, “ANTI-HER2 IMMUNOCONJUGATES, AND USES THEREOF” (BOLT BIOTHERAPEUTICS, INC., priority 2020, published 2024) come the findings set out here.

Test [1] has as its target T1, human TLR8 (Homo sapiens, UniProt Q9NR97).
T1 construct: host or cells: HEK293 NF-kB reporter cells
T1 sequence (Q9NR97 27-1041): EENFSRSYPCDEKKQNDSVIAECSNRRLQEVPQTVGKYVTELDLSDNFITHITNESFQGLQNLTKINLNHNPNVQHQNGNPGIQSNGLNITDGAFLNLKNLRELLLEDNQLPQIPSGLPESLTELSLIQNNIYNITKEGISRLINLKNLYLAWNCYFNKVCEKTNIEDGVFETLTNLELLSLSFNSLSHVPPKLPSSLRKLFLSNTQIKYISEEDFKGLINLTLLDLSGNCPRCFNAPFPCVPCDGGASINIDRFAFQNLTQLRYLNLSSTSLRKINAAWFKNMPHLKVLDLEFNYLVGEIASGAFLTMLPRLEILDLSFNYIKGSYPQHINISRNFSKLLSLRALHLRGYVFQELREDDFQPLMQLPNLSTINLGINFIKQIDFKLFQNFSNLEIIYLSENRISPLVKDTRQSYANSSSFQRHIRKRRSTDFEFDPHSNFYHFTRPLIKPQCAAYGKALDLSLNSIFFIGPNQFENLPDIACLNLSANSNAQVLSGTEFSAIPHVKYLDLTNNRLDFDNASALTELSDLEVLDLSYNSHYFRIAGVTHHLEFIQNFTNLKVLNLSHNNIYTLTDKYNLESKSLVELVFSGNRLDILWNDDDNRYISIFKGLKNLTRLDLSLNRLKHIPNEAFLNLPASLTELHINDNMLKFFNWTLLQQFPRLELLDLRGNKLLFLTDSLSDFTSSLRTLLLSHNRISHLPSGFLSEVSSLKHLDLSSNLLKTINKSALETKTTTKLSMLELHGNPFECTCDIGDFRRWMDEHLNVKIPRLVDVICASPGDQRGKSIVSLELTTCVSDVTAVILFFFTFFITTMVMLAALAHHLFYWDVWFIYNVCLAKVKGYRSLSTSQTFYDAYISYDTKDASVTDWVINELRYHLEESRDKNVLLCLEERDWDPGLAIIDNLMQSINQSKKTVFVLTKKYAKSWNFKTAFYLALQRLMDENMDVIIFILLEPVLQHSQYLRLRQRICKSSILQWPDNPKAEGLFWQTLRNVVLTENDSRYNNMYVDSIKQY
As to the kind of experiment: HEK Reporter Assay, HEK293 reporter cells expressing human TLR8. Format: cell-based. The conditions noted are these: HEK293 NFKB reporter cells expressing human TLR8; read-out: HEK293 hTLR8 EC50. As to the method: (§1) Each compound was synthesized, purified, and characterized by mass spectrometry and shown to have the mass indicated. Additional experimental procedures are found in the Examples. Activity against HEK293 NFKB reporter cells expressing human TLR7 or human TLR8 was measured according to Example 202.
(§2) Example 202 HEK Reporter Assay
(§3) HEK293 reporter cells expressing human TLR7 or human TLR8 were purchased from Invivogen and vendor protocols were followed for cellular propagation and experimentation. Briefly, cells were grown to 80-85% confluence at 5% CO2 in DMEM supplemented with 10% FBS, Zeocin, and Blasticidin. Cells were then seeded in 96-well flat plates at 4×10^4 cells/well with substrate containing HEK detection medium and immunostimulatory molecules.
For orientation: Reporter assays use an easily measured gene product as a stand-in for the process of interest.

The target of test [2] is T2, human TLR7 (Homo sapiens, UniProt Q9NYK1).
T2 construct: host or cells: HEK293 NF-kB reporter cells
T2 sequence (Q9NYK1 27-1049): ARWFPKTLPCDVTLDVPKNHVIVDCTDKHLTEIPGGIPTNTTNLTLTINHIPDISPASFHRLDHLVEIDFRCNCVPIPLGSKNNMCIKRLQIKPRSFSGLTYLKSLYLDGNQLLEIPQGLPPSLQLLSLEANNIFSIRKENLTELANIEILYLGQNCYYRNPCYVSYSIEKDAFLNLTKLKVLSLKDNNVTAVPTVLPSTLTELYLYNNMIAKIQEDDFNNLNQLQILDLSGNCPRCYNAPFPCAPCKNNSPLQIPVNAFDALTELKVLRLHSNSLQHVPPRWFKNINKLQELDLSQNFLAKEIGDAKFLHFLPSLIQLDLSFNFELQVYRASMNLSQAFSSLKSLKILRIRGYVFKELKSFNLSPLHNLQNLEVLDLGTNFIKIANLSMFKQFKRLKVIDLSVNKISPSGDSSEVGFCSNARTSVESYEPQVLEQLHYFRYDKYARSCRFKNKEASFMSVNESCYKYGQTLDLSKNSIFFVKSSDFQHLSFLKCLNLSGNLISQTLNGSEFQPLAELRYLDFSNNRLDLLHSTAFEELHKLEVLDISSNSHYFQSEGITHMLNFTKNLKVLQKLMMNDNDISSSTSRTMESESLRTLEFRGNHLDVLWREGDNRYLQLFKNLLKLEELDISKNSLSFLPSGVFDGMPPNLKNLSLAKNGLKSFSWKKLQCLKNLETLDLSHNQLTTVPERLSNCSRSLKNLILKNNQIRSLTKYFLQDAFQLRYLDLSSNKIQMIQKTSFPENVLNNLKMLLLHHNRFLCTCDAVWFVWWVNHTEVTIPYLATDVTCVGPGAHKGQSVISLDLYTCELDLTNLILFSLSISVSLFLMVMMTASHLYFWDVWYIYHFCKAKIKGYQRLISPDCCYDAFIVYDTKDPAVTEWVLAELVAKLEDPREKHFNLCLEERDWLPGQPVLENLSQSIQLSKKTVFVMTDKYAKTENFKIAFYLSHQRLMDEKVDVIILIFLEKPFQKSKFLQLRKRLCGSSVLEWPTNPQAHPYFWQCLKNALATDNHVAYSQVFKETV
The test can be described thus: HEK Reporter Assay, HEK293 reporter cells expressing human TLR7. The format is cell-based. Conditions: HEK293 NFKB reporter cells expressing human TLR7; read-out: HEK293 hTLR7 EC50. As to the method:
as §1, §2, §3

As a reminder, the EC50 is the midpoint of the concentration-response curve. `CCCN(CCCCO)C(=O)C1=Cc2ccc(-c3cccc(S(=O)(=O)N4CC(CNC(=O)OC(C)(C)C)C4)c3)cc2N=C(N)C1` [PhBz-9]: the 50% effective concentration (EC50) in test [1] came to 1.08 µM; in test [2], 5.14 µM.
`CCCN(CCO)C(=O)C1=Cc2ccc(-c3cccc(S(=O)(=O)N4CC(CNC(=O)OC(C)(C)C)C4)c3)cc2N=C(N)C1` [PhBz-21]: the concentration for a half-maximal effect (EC50) in test [1] was 0.423 µM; in test [2], 3.52 µM.
As to `CCCN(OCCO)C(=O)C1=Cc2ccc(-c3cccc(S(=O)(=O)N4CC(CN)C4)c3)cc2N=C(N)C1` [PhBz-25], in test [1], the EC50 was found to be 0.822 µM.
